This note sets out measurements from patent US7534914B2, “Substituted methyl aryl or heteroaryl amide compounds” (ReQualia Pharma Inc., priority 2004, dated 2009).

The target in the experiment is T1, human EP4 receptors (Homo sapiens, UniProt P35408).
T1 construct: expressed in transfected cells
The experiment is described as follows: cAMP assay in human EP4 transfectant. In kind it is cell-based. The conditions noted are these: HEK293 cells expressing human EP4 receptors, 1 nM PGE2, 0.2 mM IBMX, 37° C. for 10 min. The method, then: cAMP Assay in Human EP4 Transfectant
HEK293 cells expressing human EP4 receptors (hEP4 cells) are maintained in DMEM containing 10% FBS and 500 μg/ml geneticin. For harvesting hEP4 cells, culture medium is aspirated and cells in 75 cm^2 flask are washed with 10 ml of phosphate buffered saline (PBS). Another 10 ml of PBS is added to the cells and incubated for 20 min at room temperature. Human EP4 cells are harvested by pipetting and centrifuged at 300×g for 4 min. Cells are resuspended in DMEM without neutral red at a density of 7×10^5 cells/ml containing 0.2 mM IBMX (PDE inhibitor), 1 nM PGE2 and test compounds in PCR-tubes, and incubated at 37° C. for 10 min. The reaction is stopped by heating at 100° C. for 10 min with thermal cycler. Concentration of cAMP in reaction mixtures is determined with SPA cAMP Kit (Amersham) or cAMP Screen™ (Applied Biosystems) according to the manufacture's instruction. • Reference: Eur. J. Pharmacol. 340 (1997) 227-241. In Vivo Assays Carrageenan Induced Mechanical Hyperalgesia in Rats: […]
For orientation: cAMP levels reflect the balance of adenylyl cyclase and phosphodiesterase activity.

The structures appear in SMILES notation.

T1 sequence (P35408 whole entry): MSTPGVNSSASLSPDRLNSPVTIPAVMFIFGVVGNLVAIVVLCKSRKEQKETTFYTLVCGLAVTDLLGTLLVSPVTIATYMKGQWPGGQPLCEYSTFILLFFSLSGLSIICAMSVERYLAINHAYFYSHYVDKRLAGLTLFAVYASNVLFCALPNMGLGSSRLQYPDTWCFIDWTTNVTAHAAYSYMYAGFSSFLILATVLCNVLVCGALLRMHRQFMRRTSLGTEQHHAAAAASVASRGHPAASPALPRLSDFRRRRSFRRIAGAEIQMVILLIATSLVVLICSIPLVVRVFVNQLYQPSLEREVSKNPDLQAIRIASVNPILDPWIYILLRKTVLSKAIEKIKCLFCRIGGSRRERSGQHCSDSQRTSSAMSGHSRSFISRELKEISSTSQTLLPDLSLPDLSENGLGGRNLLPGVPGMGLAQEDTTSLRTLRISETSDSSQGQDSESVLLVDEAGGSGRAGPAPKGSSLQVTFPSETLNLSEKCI

Consider `C[C@H](NC(=O)c1cc(Cl)ccc1COCC(C)(C)C)c1ccc(C(=O)O)cc1` [EXAMPLE 24, 4-{(1S)-1-({5-chloro-2-[(2,2-dimethylpropoxy)methyl]benzoyl}amino)ethyl}benzoic Acid], for which the midpoint of inhibition, the IC50, lay at 0.12 µM. That is a sub-micromolar value.

For `C[C@H](NC(=O)c1cc(Cl)ccc1COc1ccc(F)c(F)c1)c1ccc(C(=O)O)cc1` [EXAMPLE 11, 4-[(1S)-1-({5-chloro-2-[(3,4-difluorophenoxy)methyl]benzoyl}amino)ethyl]benzoic Acid], the IC50 – broadly, the concentration needed to halve the response being measured – was found to be 0.016 µM. Compared with the last compound, the IC50 is about 7.5-fold lower.

`CC(C)COCc1ccc(Cl)cc1C(=O)N[C@@H](C)c1ccc(C(=O)O)cc1` [EXAMPLE 17, 4-((1S)-1-{[5-chloro-2-(isobutoxymethyl)benzoyl]amino}ethyl)benzoic Acid] gave an IC50 of 0.18 µM. Compared with the last compound, the IC50 is about 11-fold higher.

The compound `CNC(=O)c1cccc(OCc2ccc(Cl)cc2C(=O)N[C@@H](C)c2ccc(C(=O)O)cc2)c1` [EXAMPLE 19, 4-((1S)-1-{[5-chloro-2-({3-[(methylamino)carbonyl]phenoxy}methyl)benzoyl]amino}ethyl)benzoic Acid] showed an IC50 of 0.22 µM.

In the case of `C[C@H](NC(=O)c1cc(Cl)ccc1COc1c(F)cccc1F)c1ccc(C(=O)O)cc1` [EXAMPLE 10, 4-[(1S)-1-({5-chloro-2-[(2,6-difluorophenoxy)methyl]benzoyl}amino)ethyl]benzoic Acid], the IC50 turned out to be 0.024 µM.

For `C[C@H](NC(=O)c1cc(F)cnc1COc1ccc(Cl)cc1)c1ccc(C(=O)O)cc1` [EXAMPLE 21, 4-{(1S)-1-[({2-[(4-chlorophenoxy)methyl]-5-fluoropyridin-3-yl}carbonyl)amino]ethyl}benzoic Acid], the IC50 came to 0.048 µM.

Turning to `C[C@H](NC(=O)c1cc(Cl)ccc1COc1ccc(F)cc1)c1ccc(C(=O)O)cc1` [EXAMPLE 4, 4-[(1S)-1-({5-chloro-2-[(4-fluorophenoxy)methyl]benzoyl}amino)ethyl]benzoic Acid], 0.015 µM corresponded to half-maximal inhibition (IC50).

For the compound `C[C@H](NC(=O)c1cc(Cl)ccc1COc1cncc(F)c1)c1ccc(C(=O)O)cc1` [EXAMPLE 14, 4-{(1S)-1-[(5-chloro-2-{[(5-fluoropyridin-3-yl)oxy]methyl}benzoyl)amino]ethyl}benzoic Acid], it took 0.38 µM to reach half-maximal inhibition (IC50).

For the compound `C[C@H](NC(=O)c1cc(Cl)ccc1COc1ccc(F)cc1F)c1ccc(C(=O)O)cc1` [EXAMPLE 8, 4-[(1S)-1-({5-chloro-2-[(2,4-difluorophenoxy)methyl]benzoyl}amino)ethyl]benzoic Acid], the midpoint of inhibition, the IC50, lay at 0.017 µM.

The compound `C[C@H](NC(=O)c1cc(Cl)ccc1COc1ccccc1Cl)c1ccc(C(=O)O)cc1` [EXAMPLE 1, 4-[(1S)-1-({5-chloro-2-[(2-chlorophenoxy)methyl]benzoyl}amino)ethyl]benzoic Acid] showed an IC50 of 0.019 µM.

For the compound `C[C@H](NC(=O)c1cc(Cl)cnc1COc1cccc(Cl)c1)c1ccc(C(=O)O)cc1` [EXAMPLE 20, 4-{(1S)-1-[({5-chloro-2-[(3-chlorophenoxy)methyl]pyridin-3-yl}carbonyl)amino]ethyl}benzoic Acid], inhibition was half-maximal at 0.017 µM (IC50).

Regarding `C[C@H](NC(=O)c1cc(Cl)ccc1COc1cccc(F)c1)c1ccc(C(=O)O)cc1` [EXAMPLE 5, 4-[(1S)-1-({5-chloro-2-[(3-fluorophenoxy)methyl]benzoyl}amino)ethyl]benzoic Acid], half-maximal inhibition (IC50) required 0.023 µM.

Compound `C[C@H](NC(=O)c1cc(Cl)ccc1COc1cccc(F)c1F)c1ccc(C(=O)O)cc1` [EXAMPLE 7, 4-[(1S)-1-({5-chloro-2-[(2,3-difluorophenoxy)methyl]benzoyl}amino)ethyl]benzoic Acid] returned an IC50 of 0.015 µM. Compared with the last compound, the IC50 is about 1.5-fold lower.

The compound `C[C@H](NC(=O)c1cc(Cl)ccc1CN(C)c1ccc(Cl)cn1)c1ccc(C(=O)O)cc1` [EXAMPLE 22, 4-{(1S)-1-[(5-chloro-2-{[(5-chloropyridin-2-yl)(methyl)amino]methyl}benzoyl)amino]ethyl}benzoic Acid] returned a half-maximal inhibitory concentration (IC50) of 0.068 µM.

Compound `C[C@H](NC(=O)c1cc(Cl)ccc1COc1cncc(Cl)c1)c1ccc(C(=O)O)cc1` [EXAMPLE 15, 4-{(1S)-1-[(5-chloro-2-{[(5-chloropyridin-3-yl)oxy]methyl}benzoyl)amino]ethyl}benzoic Acid] showed a concentration for half-maximal inhibition (IC50) of 0.16 µM.

`C[C@H](NC(=O)c1cc(Cl)ccc1COCC1CCCCC1)c1ccc(C(=O)O)cc1` [EXAMPLE 23, 4-{(1S)-1-({5-chloro-2-[(cyclohexylmethoxy)methyl]benzoyl}amino)ethyl}benzoic Acid] had an IC50 of 0.01 µM.

As for `C[C@H](NC(=O)c1cc(Cl)ccc1COc1cccc(Cl)c1)c1ccc(C(=O)O)cc1` [EXAMPLE 2, 4-[(1S)-1-({5-chloro-2-[(3-chlorophenoxy)methyl]benzoyl}amino)ethyl]benzoic Acid], the IC50 was found to be 0.011 µM.

As for `C[C@H](NC(=O)c1cc(Cl)ccc1COC1CCCC1)c1ccc(C(=O)O)cc1` [EXAMPLE 16, 4-[(1S)-1-({5-chloro-2-[(cyclopentyloxy)methyl]benzoyl}amino)ethyl]benzoic Acid], inhibition was half-maximal at 0.47 µM (IC50).

The compound `Cc1ccc(OCc2ccc(Cl)cc2C(=O)N[C@@H](C)c2ccc(C(=O)O)cc2)cc1` [EXAMPLE 13, 4-[(1S)-1-({5-chloro-2-[(4-methylphenoxy)methyl]benzoyl}amino)ethyl]benzoic Acid] returned a concentration for half-maximal inhibition (IC50) of 0.0083 µM.

Consider `C[C@H](NC(=O)c1cc(Cl)ccc1COc1cc(F)ccc1F)c1ccc(C(=O)O)cc1` [EXAMPLE 9, 4-[(1S)-1-({5-chloro-2-[(2,5-difluorophenoxy)methyl]benzoyl}amino)ethyl]benzoic Acid], for which the midpoint of inhibition, the IC50, lay at 0.041 µM.

Compound `C[C@H](NC(=O)c1cc(Cl)ccc1CN(C)c1ccc(F)cn1)c1ccc(C(=O)O)cc1` [EXAMPLE 25, 4-{(1S)-1-[(5-chloro-2-{[(5-fuluoropyridin-2-yl)(methyl)amino]methyl}benzoyl)amino]ethyl}benzoic Acid] displayed an IC50 of 0.23 µM. Compared with the last compound, the IC50 is about 5.6-fold higher.

`C[C@H](NC(=O)c1cc(Cl)cnc1COc1ccc(F)cc1)c1ccc(C(=O)O)cc1` [EXAMPLE 27, 4-{(1S)-1-[({5-chloro-2-[(4-fluorophenoxy)methyl]pyridin-3-yl}carbonyl)amino]ethyl}benzoic Acid] came in with an IC50 of 0.091 µM.

`C[C@H](NC(=O)c1cc(Cl)cnc1COc1ccc(Cl)cc1)c1ccc(C(=O)O)cc1` [EXAMPLE 18, 4-{(1S)-1-[({5-chloro-2-[(4-chlorophenoxy)methyl]pyridin-3-yl}carbonyl)amino]ethyl}benzoic Acid] showed an IC50 of 0.022 µM. Against the preceding compound, the IC50 is about 4.1-fold lower.

As for `C[C@H](NC(=O)c1cc(Cl)ccc1COc1ccccc1F)c1ccc(C(=O)O)cc1` [EXAMPLE 6, 4-[(1S)-1-({5-chloro-2-[(2-fluorophenoxy)methyl]benzoyl}amino)ethyl]benzoic Acid], it took 0.03 µM to reach half-maximal inhibition (IC50).

Take `C[C@H](NC(=O)c1cc(Cl)ccc1COc1ccc(Cl)cc1)c1ccc(C(=O)O)cc1` [EXAMPLE 3, 4-[(1S)-1-({5-chloro-2-[(4-chlorophenoxy)methyl]benzoyl}amino)ethyl]benzoic Acid]: the IC50 stood at 0.0075 µM.

`C[C@H](NC(=O)c1cc(Cl)cnc1COc1cccc(F)c1)c1ccc(C(=O)O)cc1` [EXAMPLE 26, 4-{(1S)-1-[({5-chloro-2-[(3-fluorophenoxy)methyl]pyridin-3-yl}carbonyl)amino]ethyl}benzoic Acid] returned an IC50 of 0.056 µM.

Take `C[C@H](NC(=O)c1cc(Cl)ccc1COc1cc(F)cc(F)c1)c1ccc(C(=O)O)cc1` [EXAMPLE 12, 4-[(1S)-1-({5-chloro-2-[(3,5-difluorophenoxy)methyl]benzoyl}amino)ethyl]benzoic Acid]: the IC50 worked out at 0.022 µM.
